We go through 4 compounds from patent US20060211575A1, “CONTROL FOR PLANT AND PLANT PRODUCT PATHOGENS” (W. NEUDORFF GMBH KG, priority 2005, published 2006).

Holding throughout (format): in vivo
The subject of test [1] is rust (Cronartium ribicola). Nature of the test: Field test of betaines to control rust on black currants. As to conditions: 0.10% ai, black currant, resprayed every 7 to 10 days. From the text: The purpose of this test was to evaluate 6 betaines for controlling rust (Cronartium ribicola) on black currant. Following formation of compositions of Coco betaine, C16 betaine, C18:1 betaine, Coco amidopropyl betaine, C18:1 amidopropyl betaine, and Coco sulfo betaine having varying betaine concentrations (using the commercially available forms of the betaines as discussed herein and a water solvent), and a copper octanoate standard (formed from a commercially available form entitled “Soap Shield” from Gardens Alive, Ind., USA), the compositions/solution were sprayed to run off onto eight-year-old black currants. Every treatment had nine plants, and the plants were resprayed every 7 to 10 days.

For test [2], the system named is rose blackspot (Diplocarpon rosae). Briefly: Field test of betaines to control blackspot on Altissimo roses. As to conditions: 0.2%. From the text: The purpose of this test was to evaluate various betaines for controlling rose blackspot (Diplocarpon rosae) on Altissimo roses under field conditions. Following formation of compositions of cetyl betaine, cocobetaine, and coco amidopropyl betaine using the commercially available forms of the betaines as disclosed herein as well as formation of a standard 0.2% sulfur solution, the compositions/solution were sprayed to run off onto mature Altissimo rose plants. Nine plants were used in each treatment, and the plants were resprayed every 7 to 10 days for over a 100 day period.
Table 1, below, illustrates the results obtained from treatments of cetyl betaine at various concentrations ranging from about 0.020% ai to 0.100% ai, as well as cocobetaine at a 0.05% ai concentration and coco amiodopropyl betaine at a 0.10% ai concentration.

The subject of test [3] is powdery mildew (Sphaerotheca fuliginea). Briefly: Greenhouse test of betaines for controlling powdery mildew on dandelion. How it is done: The purpose of this test was to evaluate the control of powdery mildew (Sphaerotheca fuliginea) on dandelion (Taraxacum officinale). Compositions of C12 betaine, Coco betaine, C16 betaine, C18:1 betaine, Coco amidopropyl betaine, C18:1 amidopropyl betaine, and Coco sulfo betaine were formed using the commercially available forms of the betaines as disclosed herein. Additionally, a sulfur standard was prepared using a commercially available form of sulfur (Red Ball EM-53) from International Chem. Inc., USA. For each treatment, twelve 20 cm diameter dandelions were used, and at the start of the test, all of the leaves were trimmed off of the plants. The test evaluated disease development on fully formed leaves. Each composition was sprayed to run off the plants, and resprayed 3 times every 7 days. The plants were also reinoculated by placing diseased dandelions amongst the test plants.

In the case of Copper octanoate [reference compound], the “Rust Sori Per 9 Plants” value in test [1] is reported as 135.
Consider `S1SSSSSSS1` [Sulfur], for which the “Leaflets with Blackspot (%)” value in test [2] (75 DAT) is 0.8%; in test [2] (102 DAT), 1.5%. In addition, the “Leaf Area Colonized by Powdery Mildew (%)” value (“Leaf Area Colonized … (%)” below) in test [3] (0.2% ai) was 0.0%.
For `CCCCCCCC/C=C\CCCCCCCC[N+](C)(C)CC(=O)[O-]` [C18:1 betaine, oleyl betaine], in test [1], the “Rust Sori Per 9 Plants” value came out at 550. The “Leaf Area Colonized … (%)” value in test [3] (0.1% ai) came to 2.3%.
As for `CCCCCCCC/C=C\CCCCCCCC(=O)NCCC[N+](C)(C)CC(=O)[O-]` [C18:1 amidopropyl betaine, oleamidopropyl betaine], the “Rust Sori Per 9 Plants” value in test [1] came out at 2121. Also, the “Leaf Area Colonized … (%)” value in test [3] (0.1% ai) came out at 0.9%.
